The text below walks through data of PubChem BioAssay (NCI).

SMILES strings stand for the structures. Several values for one entry are separate records, joined by “and”; a condition that tells them apart may be missing. Identical values can stand only once.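 How tested: cells in 96-well plates exposed to compound for 48 hours at five concentrations. GI50 marks 50% less growth. Definition used: TGI = concentration required for complete inhibition of growth.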 Some results are limits rather than exact numbers.

Holding throughout (experiment): NCI-60 cell line screen, 48 h
In assay [1] the test system is OVCAR-3 ovarian.
In assay [2] the test system is SK-MEL-28 melanoma.
The test system of assay [3] is HCT-15 colon.
Assay [4] has as its system NCI-H460 lung.
In assay [5] the test system is MOLT-4 leukemia.
Assay [6] has as its system SK-OV-3 ovarian.
Assay [7] has as its system MALME-3M melanoma.
Assay [8] deals with IGROV1 ovarian.
Assay [9] has as its system K-562 leukemia.
The subject of assay [10] is A498 renal.

In the case of `C1=CC2=CC=CC3c4nc5ccc6ccccc6c5nc4C(=C1)C23` (centres undefined), the TGI in [1], in [2], in [3], in assay [4], in [5] and in assay [6] was > 100 µM in each case. Further, the TGI in [7], in assay [8] and in [9] was > 100 µM in each case.
Turning to `O=C(CCCN1CCC2(CC1)CC(=O)N(N1CCOCC1)C2=O)c1ccccc1`, the TGI in [1], in [2], in assay [3], in assay [5], in assay [6] and in [7] was > 100 µM in each case. The TGI in assay [8] and in assay [9] was > 100 µM each time.
As for `O=P(c1ccccc1)(c1ccccc1)N1O[C@@H](c2ccccc2)C=C[C@H]1c1ccccc1`, the TGI was 27.8 µM in [1]; 38.3 µM in assay [2]; 26.3 µM in assay [3]; 20.1 µM in [4]; 27.5 µM in [5]; 33.4 µM in assay [6]. The TGI in assay [7] stood at 29.2 µM; in assay [8], 28.9 µM; in [9], 80.1 µM.
On to `CC1(C)N=C(C(N)=O)c2ncn(CCCO)c2N1`, for which the TGI in [1], in [2], in assay [3], in [10], in assay [4] and in [6] was > 100 µM throughout. In addition, the TGI in assay [7], in assay [8] and in assay [9] was > 100 µM throughout.
Take `Cc1nn(C(=O)Cc2ccccc2)c2c1C(c1ccc(O)cc1)SC(N)=N2` (centres undefined): the TGI in assay [2], in [3], in assay [10], in [4], in [5] and in assay [6] was > 100 µM in each case. Moreover, the TGI in [7], in assay [8] and in assay [9] was > 100 µM throughout.
For the compound `COc1cc(NS(C)(=O)=O)ccc1N1Cc2cnc3ccc4[nH]c(C)cc1c4c23`, the TGI in assay [1], in assay [2], in assay [3], in [10], in assay [4] and in [5] was > 100 µM in each case. Further, the TGI in assay [6], in assay [8] and in assay [9] was > 100 µM each time.
For the compound `CC(C)(C)NC(=O)/C(=C\Sc1ccccc1)c1ccc2c(c1)OCO2`, the TGI is > 100 µM in [1]; > 100 µM in assay [2]; > 100 µM in assay [3]; 59 µM in [10]; > 100 µM in assay [5]; > 100 µM in assay [6]. Further, the TGI in assay [8] and in [9] was > 100 µM each time.
For `COc1ccc2cc(-c3ccc(-c4ccc(C(=N)N)s4)s3)ccc2c1`, the GI50 is 2.42 µM in [1]; 2.5 µM in assay [2]; 1.89 µM in assay [3]; 14.3 µM in assay [10]; 2.17 µM in assay [5]; 17.9 µM in assay [6]. In addition, the GI50 in assay [7] was 3.32 µM; in [8], 2.27 µM. Further, the TGI in [1] was 6.07 µM; in assay [2] it was 6.04 µM; in assay [3], 3.7 µM; in assay [10] it was 42.3 µM; in assay [5] it was 6.7 µM; in assay [6] it was 33.2 µM. For the same compound, the TGI in assay [7] is 11.5 µM; in assay [8], 5.45 µM.
For the compound `CC[C@H]1CN2CCc3cc(OC)c(OC)cc3[C@@H]2C[C@@H]1C[C@H]1NCCc2cc(OC)c(OC)cc21`, the TGI was 0.187 µM and 0.18 µM in [1]; 0.176 µM and 0.109 µM in assay [2]; 0.76 µM and 1.27 µM in [3]; 0.176 µM in assay [10]; 0.0713 µM and 0.03 µM in [4]; 0.223 µM and 0.991 µM in [6]. Further, the TGI is 0.255 µM in [7]; 0.0935 µM and 0.277 µM in assay [8]; 0.0932 µM in assay [9].
For `CC(C)COP(=O)(OCC(C)C)C(NS(=O)(=O)c1ccccc1)(C(F)(F)F)C(F)(F)F`, the TGI was determined as 23.8 µM in assay [1]; 37.1 µM in [2]; 23.8 µM in assay [3]; 14.9 µM in assay [5]; 29.9 µM in assay [6]; 32.4 µM in assay [7]. Further, the TGI is 16.8 µM in assay [8] and > 100 µM in [9].
Consider `Clc1ccc(-c2nn3c(-c4ccncc4)nnc3s2)cc1`, for which the TGI in assay [1] is > 100 µM; in [3], 90.7 µM; in assay [4] it was > 100 µM; in [5] it was > 100 µM; in assay [6], 84.9 µM; in [7] it was > 100 µM. Further, the TGI in assay [8] and in assay [9] was > 100 µM throughout.
Turning to `O=C(NCCN1CCOCC1)c1ccc2cc(C(=O)N3CC(CCl)c4ccc([N+](=O)[O-])cc43)[nH]c2c1` (centres undefined), the TGI in assay [1] was 33.1 µM; in assay [2], > 100 µM; in assay [3], > 100 µM; in assay [10], 20 µM; in [4], 26.1 µM; in assay [5], 39.1 µM. Besides, the figures for the TGI in [6], in [8] and in assay [9] were 40.5 µM, > 100 µM and > 100 µM, respectively.
For `O=C(/C=C/c1ccsc1)c1ccsc1`, the TGI was 89.3 µM in assay [2]; 41.5 µM in assay [3]; > 100 µM in assay [10]; 69.6 µM in [4]; 44.7 µM in assay [5]; > 100 µM in assay [6]. The results for the TGI in assay [7] and in assay [8] were 75.1 µM and 94.6 µM, respectively.
`O=c1c2ccccc2nc2[nH][nH]c(=S)n12`: the TGI in [1], in assay [2], in [3], in assay [10], in [4] and in assay [5] was > 100 µM each time. The TGI in assay [6], in assay [8] and in assay [9] was > 100 µM throughout.
Take `BrC/C=C/C[P+](c1ccccc1)(c1ccccc1)c1ccccc1`: the TGI is 58.7 µM in assay [1]; > 100 µM in [2]; > 100 µM in [4]; > 100 µM in assay [5]; > 100 µM in assay [6]; > 100 µM in assay [7]. Also, the TGI in [8] and in assay [9] was > 100 µM throughout.
`Cc1c2c(n(CCc3ccc(Cl)cc3)c1C)NN=C(C#N)S2(=O)=O`: the TGI in [1], in assay [2], in assay [3], in assay [4], in assay [5] and in [6] was > 100 µM each time. Further, the TGI in assay [7], in assay [8] and in assay [9] was > 100 µM throughout.
`N#C/C(=C\c1cc(Br)c(O)c(Br)c1)c1cccnc1`: the TGI in assay [1] is 44 µM; in assay [2] it was > 100 µM; in [3], 44 µM; in assay [4], > 100 µM; in [5], > 100 µM; in assay [6], > 100 µM. Besides, the TGI is 41.6 µM in assay [7], > 100 µM in assay [8] and > 100 µM in [9].
Regarding `O=C(NCCCN(CCCCN(CCCNC(=O)C(F)(F)F)Cc1ccccc1)Cc1ccccc1)C(F)(F)F`, the TGI in [2] is 25.1 µM; in assay [3] it was 24.9 µM; in [10], 72.2 µM; in [4], 22.1 µM; in [5] it was 39.9 µM; in assay [6] it was 36.1 µM. For the same compound, the TGI was 28.4 µM in [7], 26.2 µM in assay [8] and 30.6 µM in [9].
Consider `Cc1cc2[nH]c3[nH]c(=O)[nH]c(=O)c3c2cc1C`, for which the TGI in assay [3], in assay [10], in [6], in [7] and in assay [8] was > 100 µM in each case.
In the case of `CC(=O)O[C@]12CCCCCC1C1(O)C(O)CCC[C@H]12` (some centres undefined), the TGI in assay [2], in assay [3], in assay [4], in [5], in assay [6] and in [7] was > 100 µM throughout. In assay [9], the TGI was > 100 µM.
As for `O=C(N=Nc1cc(Cl)ccc1Cl)NNc1cc(Cl)ccc1Cl`, the TGI in assay [1] worked out at 32.7 µM; in assay [2], 61.2 µM; in assay [3], 64.4 µM; in assay [10], 82.3 µM; in [4], 44.5 µM; in assay [6] it was 63 µM. The TGI in assay [7] was 82.1 µM; in assay [8], 57.3 µM; in assay [9], 54.6 µM.
Regarding `Cc1csc(-c2cn(C)c3c2C(=O)C(N)=CC3=O)n1`, the TGI was > 67.3 µM in assay [1]; > 100 µM in assay [2]; > 100 µM in assay [3]; > 100 µM in assay [10]; 15.9 µM in assay [4]; > 27.9 µM in assay [5]. Moreover, the TGI in assay [6] is > 100 µM; in [8], 13.4 µM; in assay [9], > 100 µM.
Regarding `O=C1C[C@H](Sc2ccccc2)C2(OCCO2)[C@@H](Sc2ccccc2)C1`, the TGI in assay [1] is 7.94 µM; in assay [2], 10.4 µM; in [10] it was > 66.7 µM; in assay [4], > 44.5 µM; in [6], 24.7 µM; in assay [7], 7.81 µM. Also, the TGI in assay [8] came to 3.49 µM; in [9], 0.673 µM.
For `CCOC(=O)/C=C(\C)c1ccc(C)cc1C`, the TGI in assay [2] was 51.8 µM; in assay [3] it was 88.6 µM; in assay [10], > 100 µM; in assay [4] it was > 100 µM; in assay [5], > 100 µM; in assay [7], 53.9 µM. The TGI in assay [8] and in assay [9] was > 100 µM each time.
As for `COc1cc(C2SCC(=O)N2c2ccc(NC(=O)c3ccc(N4C(=O)CSC4c4cc(OC)c(OC)c(OC)c4)cc3)cc2)cc(OC)c1OC` (centres undefined), the TGI in assay [1], in [2], in assay [3], in [4], in assay [5] and in assay [6] was > 100 µM in each case. Besides, the TGI in [7], in [8] and in assay [9] was > 100 µM in each case.
`O=c1ccc2cc3ccc4cccc5ccc(c2o1)c3c45`: the TGI in assay [2] is > 100 µM; in assay [3], > 100 µM; in assay [10], 44.9 µM; in assay [4] it was > 100 µM; in assay [5] it was > 100 µM; in [6] it was 32.6 µM. The TGI in assay [7], in assay [8] and in assay [9] was > 100 µM throughout.
For `COCOc1ccc(Cn2c(=O)n(C)c(=O)c3c2ncn3C)cc1[N+](=O)[O-]`, the TGI in [1], in assay [2], in assay [3], in [4], in [5] and in [6] was > 100 µM throughout. In addition, the TGI in assay [7], in [8] and in assay [9] was > 100 µM in each case.
On to `COc1cc([N+](=O)[O-])c(OC)cc1-c1nc2sc(Cl)cn2c1/C=N/Nc1ccccn1`, for which the GI50 was 28.1 µM in [3]; 8.95 µM in assay [10]; 15.8 µM in assay [4]; 9.11 µM in assay [6]; > 50 µM in [8]; > 50 µM in assay [9]. Moreover, the TGI in assay [3] was > 50 µM; in [10], 19.4 µM; in [4], > 50 µM; in assay [6], 16.5 µM; in assay [8], > 50 µM; in [9] it was > 50 µM.
For the compound `CN(C)Cc1cc(C(=O)/C=C/c2ccc(O)cc2)cc(CN(C)C)c1O`, the TGI in assay [1] was 56.2 µM; in [2], > 100 µM; in assay [3], > 100 µM; in assay [10] it was > 100 µM; in [4], > 100 µM; in assay [5], > 100 µM. In addition, the TGI in [8] and in [9] was > 100 µM each time.
On to `C/C(CC1C2CCCC1C2)=N\NC(N)=O` (centres undefined), for which the TGI in assay [1], in assay [2], in assay [3], in [4], in assay [5] and in assay [6] was > 100 µM in each case. For the same compound, the TGI in [7] and in assay [8] was > 100 µM throughout.
